The conditions of series [1]: 101 kPa, Liquid, Sing-around technique in a fixed-path interferometer.
Series [2] can be described thus: xn = mol fraction of the nth substance listed. The settings on record: 283.15 K; 101 kPa; Liquid; Sing-around technique in a fixed-path interferometer; x2 = 0.

SMILES strings stand for the structures. Numbers after ± are expanded uncertainties.

Regarding `CCCOCC(C)O` (stereo unspecified) [1-propoxy-2-propanol], the speed of sound in series [1] (283.15 K) is listed as 1301.9 ± 1.5 m/s; in series [1] (288.15 K) it was 1283.2 ± 1.5 m/s; in series [1] (293.15 K) it was 1264.5 ± 1.5 m/s; in series [1] (298.15 K) it was 1245.8 ± 1.5 m/s; in series [1] (303.15 K) it was 1227.3 ± 1.5 m/s.
In the case of `O` [water] + CCCOCC(C)O, in series [2], the speed of sound is on record as 1447.3 ± 1.2 m/s.

(Values after the NIST ThermoML archive (doi:10.1016/j.jct.2011.09.008).)
